Data published in patent US7317000B2, “Glucose-dependent insulins” (Novo Nordisk A/S, priority 2001, dated 2008).

Target: solubilized human insulin receptor (Homo sapiens, UniProt P06213)
Assay: Insulin receptor binding by competition with 125I-TyrA14 human insulin (scintillation counting)
Settings: antibody-captured solubilized receptor on Scintiplates

Sequence of solubilized human insulin receptor (P06213 28-758 limits assumed): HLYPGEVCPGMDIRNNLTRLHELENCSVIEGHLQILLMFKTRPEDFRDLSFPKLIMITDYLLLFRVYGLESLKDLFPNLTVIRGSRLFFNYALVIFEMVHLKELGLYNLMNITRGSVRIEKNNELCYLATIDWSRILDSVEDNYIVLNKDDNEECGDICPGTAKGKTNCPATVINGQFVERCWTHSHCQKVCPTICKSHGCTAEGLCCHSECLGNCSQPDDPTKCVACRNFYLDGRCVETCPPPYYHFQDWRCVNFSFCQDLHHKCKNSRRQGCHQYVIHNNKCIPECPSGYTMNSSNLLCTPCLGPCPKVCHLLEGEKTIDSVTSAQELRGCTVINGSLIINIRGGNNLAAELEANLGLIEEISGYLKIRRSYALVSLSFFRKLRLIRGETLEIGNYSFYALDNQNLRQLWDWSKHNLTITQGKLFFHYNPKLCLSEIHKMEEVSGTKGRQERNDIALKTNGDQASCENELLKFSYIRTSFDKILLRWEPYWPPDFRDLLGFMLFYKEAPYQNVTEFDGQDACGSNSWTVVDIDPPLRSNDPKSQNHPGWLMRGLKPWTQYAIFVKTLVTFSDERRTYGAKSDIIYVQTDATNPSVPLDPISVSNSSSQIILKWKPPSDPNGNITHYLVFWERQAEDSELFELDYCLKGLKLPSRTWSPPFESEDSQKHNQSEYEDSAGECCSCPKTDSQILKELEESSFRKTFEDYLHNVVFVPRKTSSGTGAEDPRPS
Sequence of solubilized human insulin receptor (P06213 763-1382 partner limits assumed): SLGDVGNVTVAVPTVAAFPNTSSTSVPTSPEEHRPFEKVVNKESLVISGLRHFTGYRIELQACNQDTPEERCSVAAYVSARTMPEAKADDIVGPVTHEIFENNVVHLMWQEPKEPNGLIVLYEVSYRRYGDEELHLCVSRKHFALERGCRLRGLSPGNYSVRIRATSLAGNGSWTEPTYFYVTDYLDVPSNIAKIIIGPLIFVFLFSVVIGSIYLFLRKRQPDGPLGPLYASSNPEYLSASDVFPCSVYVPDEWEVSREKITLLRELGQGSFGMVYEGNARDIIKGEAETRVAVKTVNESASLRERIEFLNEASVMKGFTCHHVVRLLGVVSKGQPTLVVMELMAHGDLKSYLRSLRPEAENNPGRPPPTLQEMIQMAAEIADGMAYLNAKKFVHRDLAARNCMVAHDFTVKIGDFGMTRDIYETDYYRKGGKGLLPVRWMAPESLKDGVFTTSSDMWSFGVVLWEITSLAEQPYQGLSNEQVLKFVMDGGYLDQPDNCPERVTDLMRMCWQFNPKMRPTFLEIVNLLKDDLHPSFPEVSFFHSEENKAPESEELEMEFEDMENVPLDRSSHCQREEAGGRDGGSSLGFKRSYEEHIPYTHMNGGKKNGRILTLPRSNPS

Substance	Kd [nM]
Lys^B29(N^ε-(4-carboxyphenylalanine-N-methyl-glucamide), N^α-(4-borono-phenylsulfonyl)) des(B30), human insulin [Compound 23]	0.015
Lys^B29-(N^ε(γ-L-glutamyl-α-D-glucamide, N^α-(3-borono-5-nitro-benzoyl)) des(B30) human insulin [Compound 10]	0.016
